Experiments:
Assay type in all cases: in vivo
[1] = test system: Beet Armyworm (Spodoptera exigua, LAPHEG) ("BAW"); assay: Bioassays on BAW, 128-well diet tray assay; details: 168 h, second instar larvae, 50 μg/cm^2 on artificial diet, 25° C., five to seven days, average of eight wells, read-out: BAW % Control (or Mortality) rating
In short: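 One to five second-instar larvae were placed per well on artificial diet surface-treated with 50 μg/cm^2 compound from 90:10 acetone-water, dried before infestation. Trays were held at 25 °C, 14:10 light-dark, for five to seven days. Percent mortality was averaged over eight wells.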

[2] = test system: Yellow Fever Mosquito (Aedes aegypti, AEDSAE) ("YFM"); assay: Bioassays on YFM, 96-well plate larval assay; details: about 1 day-old larvae, from 4000 ppm DMSO master plate diluted, room temperature, scored after 3 days
In short: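 Compounds from 4000 ppm DMSO master plates, diluted in 90:10 water:acetone, dispensed into 96-well plates, six replicates. About 1-day-old larvae added in liver-powder water. Wells covered, held 3 days at room temperature, then scored for mortality.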

[3] = test system: Green Peach Aphid (Myzus persicae, MYZUPE) ("GPA"); assay: Bioassays on GPA, foliar spray of infested cabbage seedlings; details: 72 h, 200 ppm spray on cabbage seedlings, graded after three days, Abbott corrected % control, read-out: GPA % Control (or Mortality) rating
Experimental: Certain molecules disclosed in this document were tested against GPA using procedures described in the following example. In the reporting of the results, the “GPA Rating Table” was used (See Table Section).
Cabbage seedlings grown in 3-inch pots, with 2-3 small (3-5 cm) true leaves, were used as test substrate. The seedlings were infested with 20-50 GPA (wingless adult and nymph stages) one day prior to chemical application. Four pots with individual seedlings were used for each treatment. Test compounds (2 mg) were dissolved in 2 mL of acetone/methanol (1:1) solvent, forming stock solutions of 1000 ppm test compound. The stock solutions were diluted 5× with 0.025% Tween 20 in water to obtain the solution at 200 ppm test compound. A hand-held aspirator-type sprayer was used for spraying a solution to both sides of […] leaves until runoff. Reference plants (solvent check) were sprayed with the diluent only containing 20% by volume of acetone/methanol (1:1) solvent. Treated plants were held in a holding room for three days at approximately 25° C. and ambient relative humidity (RH) prior to grading. Evaluation was conducted by counting the number of live aphids per plant under a microscope. Percent Control was measured by using Abbott's correction formula (W. S. Abbott, “A Method of Computing the Effectiveness of an Insecticide” J. Econ. Entomol. 18 (1925), pp. 265-267) as follows. Corrected % Control=100*(X−Y)/X • where • X=No. of live aphids on solvent check plants and • Y=No. of live aphids on treated plants

[4] = test system: Corn Earworm (Helicoverpa zea, HELIZE) ("CEW"); assay: Bioassays on CEW, 128-well diet tray assay; details: 168 h, second instar larvae, 50 μg/cm^2 on artificial diet, 25° C., five to seven days, average of eight wells, read-out: CEW % Control (or Mortality) rating
Experimental: Certain molecules disclosed in this document were tested against BAW, CEW, and CL using procedures described in the following examples. In the reporting of the results, the “BAW, CEW, & CL Rating Table” was used (See Table Section).
Bioassays on CEW were conducted using a 128-well diet tray assay. one to five second instar CEW larvae were placed in each well (3 mL) of the diet tray that had been previously filled with 1 mL of artificial diet to which 50 μg/cm^2 of the test compound (dissolved in 50 μL of 90:10 acetone-water mixture) had been applied (to each of eight wells) and then allowed to dry. Trays were covered with a clear self-adhesive cover, and held at 25° C., 14:10 light-dark for five to seven days. Percent mortality was recorded for the larvae in each well; activity in the eight wells was then averaged. The results are indicated in the table entitled “Table ABC: Biological Results” (See Table Section). Bioassays on CL

[5] = test system: Cabbage Looper (Trichoplusia ni, TRIPNI) ("CL"); assay: Bioassays on CL, 128-well diet tray assay; details: 168 h, second instar larvae, 50 μg/cm^2 on artificial diet, 25° C., five to seven days, average of eight wells, read-out: CL % Control (or Mortality) rating
In short: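 Second-instar larvae (one to five per well) on artificial diet surface-treated with 50 μg/cm^2 compound in 90:10 acetone-water, eight wells per treatment. Held at 25° C., 14:10 light-dark for five to seven days. Percent mortality scored per well and averaged over the eight wells.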

| SMILES | mortality at 50 µg/cm2 [1] [%] | YFM % Control (or Mortality) rating [2] | mortality at 200 ppm [3] [%] | mortality at 50 µg/cm2 [4] [%] | mortality at 50 µg/cm2 [5] [%] |
| --- | --- | --- | --- | --- | --- |
| CC(C)c1ccccc1NC(=S)Nc1ccc(-c2ncn(-c3ccc(C(F)(F)F)cc3)n2)cc1 [F53, 1-(2-isopropylphenyl)-3-(4-(1-(4-(trifluoromethyl)phenyl)-1H-1,2,4-triazol-3-yl)phenyl)thiourea] | 50 to 100 | A (80-100) | 0 to 80 | 50 to 100 | – |
| CCOC(=O)c1ccc(NC(=O)Nc2ccc(-c3ncn(-c4ccc(OC(F)(F)F)cc4)n3)cc2)c(C)n1 [F41, Ethyl 6-methyl-5-(3-(4-(1-(4-(trifluoromethoxy)phenyl)-1H-1,2,4-triazol-3-yl)phenyl)ureido)picolinate] | 0 | – | 0 | 0 | – |
| FC(F)(F)Oc1ccc(-n2cnc(-c3ccc(NC(=S)Nc4ccccc4Cc4ccccc4)cc3)n2)cc1 [F58, 1-(2-Benzylphenyl)-3-(4-(1-(4-(trifluoromethoxy)phenyl)-1H-1,2,4-triazol-3-yl)phenyl)thiourea] | 50 to 100 | D (No activity noticed in this bioassay) | – | 50 to 100 | 50 to 100 |
| Cc1ccc(C(C)C)c(NC(=S)NCCCc2ccc(-c3ncn(-c4ccc(OC(F)(F)F)cc4)n3)cc2)c1 [F29, 1-(2-isopropyl-5-methylphenyl)-3-(3-(4-(1-(4-(trifluoromethoxy)phenyl)-1H-1,2,4-triazol-3-yl)phenyl)propyl)thiourea] | 50 to 100 | A (80-100) | – | 50 to 100 | 50 to 100 |
| CCOc1ccc(NC(=O)Nc2ccc(-c3ncn(-c4ccc(OC(F)(F)F)cc4)n3)cc2)cn1 [F8, 1-(6-Ethoxypyridin-3-yl)-3-(4-(1-(4-(trifluoromethoxy)phenyl)-1H-1,2,4-triazol-3-yl)phenyl)urea] | 0 | – | 0 | 0 | – |
| COc1ccc(NC(=O)Nc2ccc(-c3ncn(-c4ccc(OC(F)(F)F)cc4)n3)cc2)cn1 [F10, 1-(6-Methoxypyridin-3-yl)-3-(4-(1-(4-(trifluoromethoxy)phenyl)-1H-1,2,4-triazol-3-yl)phenyl)urea] | 50 to 100 | – | 0 to 80 | 50 to 100 | – |
| CC(C)c1ccccc1NC(=O)NCc1ccc(-c2ncn(-c3ccc(OC(F)(F)F)cc3)n2)cc1 [F65, 1-(2-Isopropylphenyl)-3-(4-(1-(4-(trifluoromethoxy)phenyl)-1H-1,2,4-triazol-3-yl)benzyl)urea] | 0 | D (No activity noticed in this bioassay) | – | 0 to 50 | 50 to 100 |
| CC(C)n1cnnc1-c1ccccc1NC(=S)Nc1ccc(-c2ncn(-c3ccc(OC(F)(F)F)cc3)n2)cc1 [F48, 1-(2-(4-isopropyl-4H-1,2,4-triazol-3-yl)phenyl)-3-(4-(1-(4-(trifluoromethoxy)phenyl)-1H-1,2,4-triazol-3-yl)phenyl)thiourea] | 50 to 100 | A (80-100) | – | 0 to 50 | 50 to 100 |
| FC(F)(F)Oc1ccc(-n2cnc(-c3ccc(NC(=S)Nc4ccccc4-n4cccc4)cc3)n2)cc1 [F74, 1-(2-(1H-Pyrrol-1-yl)phenyl)-3-(4-(1-(4-(trifluoromethoxy)phenyl)-1H-1,2,4-triazol-3-yl)phenyl)thiourea] | 50 to 100 | – | – | 50 to 100 | 50 to 100 |
| CCOc1ccc(NC(=O)Nc2ccc(-c3ncn(-c4ccc(OC(F)(F)F)cc4)n3)cc2)cc1 [F2, 1-(4-ethoxyphenyl)-3-(4-(1-(4-(trifluoromethoxy)phenyl)-1H-1,2,4-triazol-3-yl)phenyl)urea] | 0 | – | 0 | 0 | – |
| CC(C)c1ccccc1NC(=O)NCc1ccc(-c2ncn(-c3ccc(OC(F)(F)C(F)(F)F)cc3)n2)cc1 [F34, 1-(2-isopropylphenyl)-3-(4-(1-(4-(perfluoroethoxy)phenyl)-1H-1,2,4-triazol-3-yl)benzyl)urea] | 0 | – | – | 50 to 100 | 50 to 100 |
| CC(C)n1cnnc1-c1ccccc1NC(=O)Nc1ccc(-c2ncn(-c3ccc(OC(F)(F)F)cc3)n2)cc1 [F55, 1-(2-(4-Isopropyl-4H-1,2,4-triazol-3-yl)phenyl)-3-(4-(1-(4-(trifluoromethoxy)phenyl)-1H-1,2,4-triazol-3-yl)phenyl)urea] | 50 to 100 | A (80-100) | – | 0 | 50 to 100 |
| O=C(NCc1ccc(-c2ncn(-c3ccc(OC(F)(F)C(F)(F)F)cc3)n2)cc1)Nc1ccccc1-c1ccccc1 [F73, 1-([1,1′-Biphenyl]-2-yl)-3-(4-(1-(4-(perfluoroethoxy)phenyl)-1H-1,2,4-triazol-3-yl)benzyl)urea] | 50 to 100 | – | – | 50 to 100 | 50 to 100 |
| FC(F)(F)Oc1ccc(-n2cnc(-c3ccc(NC(=S)Nc4ccccc4-c4ccco4)cc3)n2)cc1 [F30, 1-(2-(Furan-2-yl)phenyl)-3-(4-(1-(4-(trifluoromethoxy)phenyl)-1H-1,2,4-triazol-3-yl)phenyl)thiourea] | 50 to 100 | A (80-100) | – | 50 to 100 | 50 to 100 |
| O=C(Nc1ccc(-c2ncn(-c3ccc(OC(F)(F)F)cc3)n2)cc1)Nc1ccccc1C1CC1 [F40, 1-(2-cyclopropylphenyl)-3-(4-(1-(4-(trifluoromethoxy)phenyl)-1H-1,2,4-triazol-3-yl)phenyl)urea] | 50 to 100 | – | – | 50 to 100 | 50 to 100 |
| O=C(Nc1ccc(-c2ncn(-c3ccc(OC(F)(F)F)cc3)n2)cc1)Nc1ccccc1-c1ccco1 [F21, 1-(2-(Furan-2-yl)phenyl)-3-(4-(1-(4-(trifluoromethoxy)phenyl)-1H-1,2,4-triazol-3-yl)phenyl)urea] | 50 to 100 | D (No activity noticed in this bioassay) | – | 50 to 100 | 50 to 100 |
| Cc1ccc(C(C)C)c(NC(=O)Nc2ccc(-c3ncn(-c4ccc(OC(F)(F)C(F)(F)F)cc4)n3)cc2)c1 [F57, 1-(2-Isopropyl-5-methylphenyl)-3-(4-(1-(4-(perfluoroethoxy)phenyl)-1H-1,2,4-triazol-3-yl)phenyl)urea] | 50 to 100 | D (No activity noticed in this bioassay) | – | 50 to 100 | 50 to 100 |
| Cc1nc(Cl)ccc1NC(=O)Nc1ccc(-c2ncn(-c3ccc(OC(F)(F)F)cc3)n2)cc1 [F36, 1-(6-Chloro-2-methylpyridin-3-yl)-3-(4-(1-(4-(trifluoromethoxy)phenyl)-1H-1,2,4-triazol-3-yl)phenyl)urea] | 50 to 100 | – | 0 to 80 | 50 to 100 | – |
| FC(F)(F)Oc1ccc(-n2cnc(-c3ccc(NC(=S)Nc4ccccc4-c4noc(C5CC5)n4)cc3)n2)cc1 [F23, 1-(2-(5-Cyclopropyl-1,2,4-oxadiazol-3-yl)phenyl)-3-(4-(1-(4-(trifluoromethoxy)phenyl)-1H-1,2,4-triazol-3-yl)phenyl)thiourea] | 50 to 100 | A (80-100) | – | 50 to 100 | 50 to 100 |

— patent US9445594B2, “Molecules having certain pesticidal utilities, intermediates, compositions, and processes, related thereto” (priority 2014, dated 2016)
